Data set [1] deals with Eosinophil. The experiment in a line: Induction of shape change in human eosinophils by flow cytometry. Type of data set: functional, cell-based.
Data set [2] concerns the target Cytochrome P450 2D6 (Homo sapiens, UniProt P10635). Description: Inhibition of CYP2D6. Type of data set: ADME.
Data set [3] deals with T1, C-C chemokine receptor type 3 (Homo sapiens, UniProt P51677).
T1 sequence (P51677 whole entry): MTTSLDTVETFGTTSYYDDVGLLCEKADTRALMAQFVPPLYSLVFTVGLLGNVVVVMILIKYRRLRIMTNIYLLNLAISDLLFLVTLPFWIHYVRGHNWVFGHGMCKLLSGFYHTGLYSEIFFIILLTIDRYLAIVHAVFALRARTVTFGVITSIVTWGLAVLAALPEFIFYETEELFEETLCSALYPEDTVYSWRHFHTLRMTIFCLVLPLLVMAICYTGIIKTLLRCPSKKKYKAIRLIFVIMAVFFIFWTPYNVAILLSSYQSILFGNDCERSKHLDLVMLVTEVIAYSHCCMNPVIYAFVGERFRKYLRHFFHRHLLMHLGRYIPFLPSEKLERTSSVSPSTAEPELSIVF
Description: Binding affinity to CCR3 receptor.

Data set [4] addresses Voltage-gated inwardly rectifying potassium channel KCNH2 (Homo sapiens, UniProt Q12809). The experiment in a line: Inhibition of human ERG by calcium-flux based assay.
Data set [5] relates to Liver microsomes. Description: Metabolic stability in human liver microsomes. Type of data set: ADME, Microsome. In general terms: Liver microsomes are vesicles of endoplasmic reticulum, rich in cytochrome P450 enzymes.

The record followed here is ChEMBL document CHEMBL1139251, “Urea based CCR3 antagonists employing a tetrahydro-1,3-oxazin-2-one spacer” (Bioorg Med Chem Lett, 2009).

Sequence of Cytochrome P450 2D6 (P10635 whole entry): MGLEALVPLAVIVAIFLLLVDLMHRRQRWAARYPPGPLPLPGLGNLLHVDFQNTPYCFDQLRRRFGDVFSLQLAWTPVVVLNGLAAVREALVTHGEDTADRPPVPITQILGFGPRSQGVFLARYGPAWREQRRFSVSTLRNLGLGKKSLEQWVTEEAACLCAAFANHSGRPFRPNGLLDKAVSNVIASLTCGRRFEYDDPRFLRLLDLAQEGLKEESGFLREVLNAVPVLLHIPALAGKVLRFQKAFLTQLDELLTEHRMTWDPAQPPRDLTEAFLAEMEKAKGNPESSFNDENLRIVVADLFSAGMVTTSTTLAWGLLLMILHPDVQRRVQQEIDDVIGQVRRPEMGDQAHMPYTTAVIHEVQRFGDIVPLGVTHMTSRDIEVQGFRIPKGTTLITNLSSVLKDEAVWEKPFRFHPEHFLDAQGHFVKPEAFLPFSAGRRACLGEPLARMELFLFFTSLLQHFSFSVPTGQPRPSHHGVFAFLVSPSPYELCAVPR
Sequence of Voltage-gated inwardly rectifying potassium channel KCNH2 (Q12809 whole entry): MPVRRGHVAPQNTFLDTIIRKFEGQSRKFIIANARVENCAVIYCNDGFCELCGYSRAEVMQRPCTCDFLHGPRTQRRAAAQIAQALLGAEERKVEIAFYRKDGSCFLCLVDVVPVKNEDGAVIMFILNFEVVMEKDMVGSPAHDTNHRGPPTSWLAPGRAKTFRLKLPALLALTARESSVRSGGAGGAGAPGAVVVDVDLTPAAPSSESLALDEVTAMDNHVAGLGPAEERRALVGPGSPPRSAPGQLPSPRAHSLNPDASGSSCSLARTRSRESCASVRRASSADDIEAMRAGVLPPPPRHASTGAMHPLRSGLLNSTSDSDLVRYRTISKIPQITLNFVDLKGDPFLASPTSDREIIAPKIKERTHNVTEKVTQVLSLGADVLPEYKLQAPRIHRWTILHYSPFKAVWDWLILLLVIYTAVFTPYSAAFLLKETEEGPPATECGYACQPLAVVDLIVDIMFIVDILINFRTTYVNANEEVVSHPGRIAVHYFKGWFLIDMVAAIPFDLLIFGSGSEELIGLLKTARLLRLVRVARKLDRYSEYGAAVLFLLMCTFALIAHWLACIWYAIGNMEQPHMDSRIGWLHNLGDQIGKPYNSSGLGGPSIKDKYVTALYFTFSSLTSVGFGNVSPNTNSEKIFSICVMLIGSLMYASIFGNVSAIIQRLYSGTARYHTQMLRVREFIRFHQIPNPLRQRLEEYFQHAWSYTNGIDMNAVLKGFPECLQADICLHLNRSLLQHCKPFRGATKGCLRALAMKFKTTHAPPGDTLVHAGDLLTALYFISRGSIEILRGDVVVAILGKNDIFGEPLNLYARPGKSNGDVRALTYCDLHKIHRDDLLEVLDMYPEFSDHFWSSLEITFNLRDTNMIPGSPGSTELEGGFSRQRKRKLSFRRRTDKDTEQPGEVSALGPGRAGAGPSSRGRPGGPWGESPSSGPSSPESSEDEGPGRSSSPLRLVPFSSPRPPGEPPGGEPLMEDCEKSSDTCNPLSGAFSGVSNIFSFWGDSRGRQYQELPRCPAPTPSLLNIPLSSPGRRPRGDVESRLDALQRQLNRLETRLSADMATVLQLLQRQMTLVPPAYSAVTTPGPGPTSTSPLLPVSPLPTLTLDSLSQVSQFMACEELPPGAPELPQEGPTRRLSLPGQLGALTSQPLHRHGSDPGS

Turning to `C[C@@H](NC(=O)Nc1cccc(-c2nnnn2C)c1)[C@@H](O)CN1CCC[C@@H](Cc2ccc(F)cc2)C1`, the IC50 in data set [1] (Homo sapiens, Eosinophil) came to 0.038 nM. In addition, in data set [2], the Ki is 2600 nM.

`CN1C[C@@H](NC(=O)Nc2cccc(-c3nnnn3C)c2)[C@H](CN2CCC[C@@H](Cc3ccc(F)cc3)C2)OC1=O`: the IC50 in data set [3] is 0.23 nM; in data set [2], 4300 nM.

Regarding `CN1C[C@@H](NC(=O)Nc2cccc(-c3nnnn3C)c2)[C@H](CN(CCCc2ccc(F)cc2)C2CC2)OC1=O`, the IC50 worked out at 2.1 nM in data set [3] and 2.2 nM in data set [1] (Homo sapiens, Eosinophil).

Turning to `CCCN(CCCc1ccc(F)cc1)C[C@@H]1OC(=O)N(C)C[C@H]1NC(=O)Nc1nc(C)cs1`, the half-maximal inhibitory concentration (IC50) in data set [3] came out at 9.2 nM.

As to `CC(=O)c1sc(NC(=O)NC2(C)CN(C)C(=O)OC2CN2CCC[C@@H](Cc3ccc(F)cc3)C2)nc1C` (mixture of isomers), the IC50 came to 1.1 nM in data set [3] and 21000 nM in data set [2].

As for `CN1CC(C)(NC(=O)Nc2cccc(-c3nnnn3C)c2)C(CN2CCC[C@@H](Cc3ccc(F)cc3)C2)OC1=O` (mixture of isomers; 19a), the half-inhibitory concentration (IC50) in data set [3] was found to be 0.12 nM; in data set [1] (eosinophil), 2.4 nM; in data set [2], 33000 nM.

In the case of `CN1CC(C)(NC(=O)Nc2cccc(-c3nnnn3C)c2)C(CN2CCC[C@@H](Cc3ccc(F)cc3)C2)OC1=O.Cl` (mixture of isomers; 19b), the IC50 in data set [3] amounted to 0.15 nM; in data set [4] it was 15700 nM; in data set [1] (eosinophil), 0.13 nM; in data set [2], 17000 nM. Also, the Stability result in data set [5] was “Unstable”.

In data set [3], `Cc1csc(NC(=O)NC2(C)CN(C)C(=O)OC2CN2CCC[C@@H](Cc3ccc(F)cc3)C2)n1` (mixture of isomers; 20a) yielded a 50% inhibitory concentration (IC50) of 5.4 nM.

Turning to `Cc1csc(NC(=O)NC2(C)CN(C)C(=O)OC2CN2CCC[C@@H](Cc3ccc(F)cc3)C2)n1` (mixture of isomers; 20b), the half-maximal inhibitory concentration (IC50) in data set [3] came out at 0.37 nM; in data set [1] (Homo sapiens, Eosinophil), 3.4 nM; in data set [2], 2100 nM.

The compound `CN1CC(C)(NC(=O)Nc2nc(C(C)(C)C)cs2)C(CN2CCC[C@@H](Cc3ccc(F)cc3)C2)OC1=O` (mixture of isomers; 22a) displayed an IC50 in data set [3] of 44 nM.

Take `CN1CC(C)(NC(=O)Nc2nc(C(C)(C)C)cs2)C(CN2CCC[C@@H](Cc3ccc(F)cc3)C2)OC1=O` (mixture of isomers; 22b): the IC50 turned out to be 5.5 nM in data set [3] and 40000 nM in data set [2].

`CCN(CCCc1ccc(F)cc1)CC1OC(=O)N(C)CC1(C)NC(=O)Nc1cccc(-c2nnnn2C)c1` (mixture of isomers; 23a): the IC50 is 0.18 nM in data set [3], 4.4 nM in data set [1] (eosinophil) and 5900 nM in data set [2].

Turning to `CCN(CCCc1ccc(F)cc1)CC1OC(=O)N(C)CC1(C)NC(=O)Nc1cccc(-c2nnnn2C)c1` (mixture of isomers; 23b), the IC50 in data set [3] is 0.47 nM; in data set [1] (Homo sapiens, Eosinophil) it was more than 3 nM; in data set [2], 14000 nM.

As usually defined, the IC50 is the concentration that inhibits the measured activity by half. A word on the Ki: it is a dissociation constant, usually derived from enzyme kinetics or from competition with a known ligand. Read a high Ki as weaker binding.
